Assay results as given in patent publication US20230295068A1, “NOVEL CYCLOALKENONE COMPOUND OR SALT THEREOF” (TAIHO PHARMACEUTICAL CO., LTD., priority 2020, published 2023).

System: ND3 neuronal cell line
Assay: Measurement of nerve growth stimulation effect (neurite bearing assay, neurite length assay, number of cells)
Type: cell-based
Settings: relative cell number, DMSO well = 1; for Number of cells: ND3 cells, 6 h; for viability at 1 µM / viability at 3 µM / viability at 5 µM / viability at 10 µM / viability at 30 µM / viability at 100 µM: 6 hours
Experimental: To evaluate the nerve growth stimulation effect, neurite bearing assay (proportion of neurite-bearing cells) and neurite length assay (neurite length) were analyzed with reference to the method of Topalli et al. (Brain Research 1030 (2004), pp. 116-124).
An ND3 neuronal cell line (European Collection of Authenticated Cell Cultures) was seeded in a DMEM medium containing 10% fetal bovine serum (0.6×10^4 cells/1 mL) in a 24-well plate. 24 hours later, the medium of seeded cells was removed, and a solution in which the compound of the present disclosure that was sequentially diluted in dimethyl sulfoxide (DMSO) was adjusted in DIEM containing 0.1% bovine serum albumin so that the DMSO final concentration was 0.1%, was added to cells (evaluation performed in duplicate). After six hours from the addition, the proportion of neurite-bearing cells (the number of cells having a neurite longer than the diameter of the cell body/number of total cells), and the neurite length per cell were analyzed. The number of total cells, proportion of neurite-bearing cells, and neurite length per cell were analyzed using a MetaMorph Neurite Outgrowth Application Module (Molecular Devices Japan K.K.). The number of cells was defined as the relative cell number, taking the number of cells per well containing DMSO as 1. The relative activity of each compound when the maximum activity of 3-(15-methoxypentadecyl)-2,4,4-trimethylcyclohexa-2-en-1-one (compound 24) in each test was defined as 1 is shown (Table 9). For the compounds for which multiple tests were conducted, the average value was shown. Data with a number of cells of 0.5 or more was also used. Accordingly, if the number of cells was less than 0.5, the neurite length per cell and the proportion of neurite-bearing cells were defined as “-”.

| Compound | Number of cells (1 μM compound) | Number of cells (3 μM compound) | Number of cells (5 μM compound) | Number of cells (10 μM compound) | Number of cells (30 μM compound) | Number of cells (100 μM compound) | viability at 1 µM [%] | viability at 3 µM [%] | viability at 5 µM [%] | viability at 10 µM [%] | viability at 30 µM [%] | viability at 100 µM [%] |
| --- | --- | --- | --- | --- | --- | --- | --- | --- | --- | --- | --- | --- |
| CC1=C(CCCCCCCCCCCCCCC#N)C(C)(C)CC1=O [Compound 75, 15-(2,5,5-trimethyl-3-oxocyclopent-1-en-1-yl)pentadecanitrile] | 0.89 | 0.93 | 0.94 | 0.80 | 0.75 | 0.80 |  |  |  |  |  |  |
| CC1=C(CCCCCCCCCCCCCCO)C(C)(C)CCC1=O [Compound 3, 3-(14-hydroxytetradecyl)-2,4,4-trimethylcyclohex-2-en-1-one, reference compound] |  |  |  |  |  |  | 98 | 105 | 110 | 108 | 11 | 13 |
| CC1=C(CCCCCCCCCCCCO)C(C)(C)CCC1=O [Compound 1, 3-(12-hydroxydodecyl)-2,4,4-trimethylcyclohex-2-en-1-one, reference compound] |  |  |  |  |  |  | 103 | 105 | 99 | 103 | 99 | 9 |
| CC1=C(CCCCCCCCCCCCCCOC(C)C)C(C)(C)CCC1=O [Compound 23, 3-(14-isopropoxytetradecyl)-2,4,4-trimethylcyclohex-2-en-1-one] |  |  |  |  |  |  | 103 | 112 | 98 | 95 | 98 | 102 |
| CNC(=O)CCCCCCCCCCCCCCC1=C(C)C(=O)CCC1(C)C [Compound 33, N-methyl-15-(2,6,6-trimethyl-3-oxocyclohex-1-en-1-yl)pentadecanamide] |  |  |  |  |  |  | 92 | 90 | 83 | 86 | 91 | 80 |
| CC1=C(CCCCCCCCCCCCCOC(C)C)C(C)(C)CCC1=O [Compound 18, 3-(13-isopropoxytridecyl)-2,4,4-trimethylcyclohex-2-en-1-one] |  |  |  |  |  |  | 116 | 106 | 89 | 97 | 95 | 89 |
| COCCCCCCCCCCCCCCC1=C(C)C(=O)CCC1(C)C [Compound 21, 3-(14-methoxytetradecyl)-2,4,4-trimethylcyclohex-2-en-1-one] |  |  |  |  |  |  | 104 | 111 | 102 | 103 | 82 | 96 |
| CNC(=O)OCCCCCCCCCCCCCCCC1=C(C)C(=O)CCC1(C)C [Compound 55, 15-(2,6,6-trimethyl-3-oxocyclohex-1-en-1-yl)pentadecylmethylcarbamate] |  |  |  |  |  |  | 105 | 102 | 85 | 85 | 69 | 25 |
| CCOCCCCCCCCCCCCCCCCC1=C(C)C(=O)CCC1(C)C [Compound 30, 3-(16-ethoxyhexadecyl)-2,4,4-trimethylcyclohex-2-en-1-one] |  |  |  |  |  |  | 88 | 91 | 83 | 87 | 95 | 98 |
| CC1=C(CCCCCCCCCCCCCCCOCc2ccccc2)C(C)(C)CCC1=O [Compound 52, 3-(15-(benzyloxy)pentadecyl)-2,4,4-trimethylcyclohex-2-en-1-one] |  |  |  |  |  |  | 105 | 100 | 95 | 96 | 90 | 96 |
| CC1=C(CCCCCCCCCCCCCCC(N)=O)C(C)(C)CC1=O [Compound 74, 15-(2,5,5-trimethyl-3-oxocyclopent-1-en-1-yl)pentadecanamide] | 0.74 | 0.75 | 0.71 | 0.73 | 0.60 | 0.26 |  |  |  |  |  |  |
| CC1(C)CCC(=O)C=C1CCCCCCCCCCCCCCCO [Compound 8, 3-(15-hydroxypentadecyl)-4,4-dimethylcyclohex-2-en-1-one, reference compound] |  |  |  |  |  |  | 101 | 102 | 98 | 93 | 6 | 9 |
| CC1=C(CCCCCCCCCCCCCCCOC(F)(F)F)C(C)(C)CCC1=O [Compound 49, 2,4,4-trimethyl-3-(15-(trifluoromethoxy)pentadecyl)-cyclohex-2-en-1-one] |  |  |  |  |  |  | 96 | 100 | 101 | 101 | 103 | 108 |
| COCCCCCCCCCCCCCCCC1=CC(=O)CCC1(C)C [Compound 39, 3-(15-methoxypentadecyl)-4,4-dimethylcyclohex-2-en-1-one] |  |  |  |  |  |  | 83 | 100 |  | 97 | 97 | 49 |
| CC1=C(CCCCCCCCCCCCCCCCO)C(C)(C)CCC1=O [Compound 5, 3-(16-hydroxyhexadecyl)-2,4,4-trimethylcyclohex-2-en-1-one, reference compound] |  |  |  |  |  |  | 111 | 109 | 105 | 83 | 49 | 40 |
| CC1=C(CCCCCCCCCCCCOC(C)C)C(C)(C)CCC1=O [Compound 13, 3-(12-isopropoxydodecyl)-2,4,4-trimethylcyclohex-2-en-1-one] |  |  |  |  |  |  | 91 | 87 | 75 | 73 | 34 | 18 |
| CCCOCCCCCCCCCCCCC1=C(C)C(=O)CC1(C)C [Compound 71, 2,4,4-trimethyl-3-(12-propoxydodecyl)cyclopent-2-en-1-one] | 0.87 | 0.94 | 0.87 | 0.79 | 0.39 | 0.07 |  |  |  |  |  |  |
| COCCCCCCCCCCCCCCCCC1=C(C)C(=O)CCC1(C)C [Compound 29, 3-(16-methoxyhexadecyl)-2,4,4-trimethylcyclohex-2-en-1-one] |  |  |  |  |  |  | 107 | 98 | 96 | 92 | 97 | 93 |
| COCCCCCCCCCCCCCCCC1=C(C)/C(=N/OC)CCC1(C)C [Compound 68, 3-(15-methoxypentadecyl)-2,4,4-trimethylcyclohex-2-en-1-one O-methyloxime] | 0.85 | 0.92 | 0.73 | 0.71 | 0.95 | 0.89 |  |  |  |  |  |  |
| CC1=C(CCCCCCCCCCCCCCCOc2ccccc2)C(C)(C)CCC1=O [Compound 51, 3-(15-phenoxypentadecyl)-2,4,4-trimethylcyclohex-2-en-1-one] |  |  |  |  |  |  | 107 | 103 | 93 | 93 | 96 | 94 |
